Measurements reported in patent US20230212274A1, “METHOD FOR TREATING ASTHMA OR ALLERGIC DISEASE” (THE CHILDREN'S MEDICAL CENTER CORPORATION, priority 2020, published 2023).
“Also recorded” adds a separate entry of the source.

Legend:
[1] = test system: Notch4 expression on differentiating iTreg cells; assay: in vitro iTreg cell differentiation: OT-II T cells co-cultured with OVA323-339- or OVA323-339+UFP-pulsed alveolar macrophages, Notch4 by flow cytometry; type: cell-based, mouse; conditions: for Notch4 expression on differentiating iTreg cells: cytokine added to co-cultures with OVA323-339 / OVA323-339+UFP-pulsed alveolar macrophages
Text: (§1) FIGS. 1A-1H show Notch4 expression on lung Treg cells in allergic airway inflammation. (FIG. 1A) RT-PCR of Notchl-4 transcripts in lung Treg and Teff cells isolated from PBS, OVA and OVA+UFP mouse groups. (FIG. 1B and FIG. 1C) Flow cytometric analysis, cell frequencies and mean fluorescence intensity (MFI) of Notch4 expression on lung Treg and Teff cells in the respective mouse groups. (FIG. 1D and FIG. 1E) Flow cytometric analysis and cell frequencies of Notch4 expression on OT-II^+CD4^+Foxp3^+ T cells generated in co-cultures with sham or OVA323-339+UFP-pulsed alveolar macrophages without or with IL-6 or anti-IL-6R mAb. (FIG. 1F) Flow cytometric analysis and cell frequencies of Notch4 expression in Helios^high and Helios^low lung Treg cells isolated from the respective mouse groups. (FIG. 1G) Flow cytometric analysis and cell frequencies of Notch4 expression on in vitro differentiated Treg cells derived from naive CD4^+ T cells isolated from Foxp3^YFPCre, Foxp3^YFPCreIl6r^Δ/Δ and Foxp3^YFPCreStat3^Δ/Δ mice and either untreated or treated with IL-6. (FIG. 1H) ChIP assays for the binding of STAT3 and control (IgG) antibodies to the Notch4 promoter in lung Treg cells of OVA+UFP-treated Foxp3^YFPCre, and Foxp3^YFPCreStat3^Δ/Δ mice. Each symbol represents one mouse. Numbers in flow plots indicate percentages. Error bars indicate SEM. Statistical tests for all panels: One-way ANOVA with Dunnett’s post hoc analysis. *P<0.05, **P<0.01, ***P<0.001, ****P<0.0001. Data representative of two or three independent experiments. (FIGS. 1A, 1D to 1F) n=5, (FIGS. 1B and 1C) n=15 and (FIGS. 1G and 1H) n=6 replicates per group.
FIGS. 7A-7E show Notch4 expression on lung Treg cells in allergic airway inflammation. (FIGS. 7A to 7C) Flow cytometric analysis, cell frequencies and mean fluorescence intensity (MFI) of Notch1, 2 and 3 expression on lung Treg and Teff cells in the respective mouse groups. (FIG. 7D) Cell frequencies of Notch4 expression on OT-II^+CD4^+Foxp3^+ T cells generated in co-cultures with sham or OVA323-339+UFP-pulsed alveolar macrophages without or with IL-1B, IL-25, IL-33, TSLP or TNFa. (FIG. 7E) ChIP assays for the binding of STAT3 and control (IgG) antibodies to the Notch1, 2 and 3 promoters in lung Treg cells of OVA+UFP-treated Foxp3^YFPCre, and Foxp3^YFPCreStat3^Δ/Δ mice. Each symbol represents one mouse. Numbers in flow plots indicate percentages. Error bars indicate SEM. Statistical tests for all panels: One-way ANOVA with Dunnett’s post hoc analysis. *P<0.05, **P<0.01, ***P<0.001, ****P<0.0001. Data representative of two or three independent experiments. N = 5-10 replicas per group.
To examine signals driving the induction of Notch4 on iTreg cells, the inventors employed an in vitro iTreg cell differentiation system in which OT-II T cell receptor (TCR) transgenic T cells, specific for the OVA323-339 peptide, were incubated with isolated primary alveolar macrophages (AM). […] Chromatin immunoprecipitation assays confirmed IL-6-dependent inducible binding of STAT3 to the Notch4 promoter in Treg cells, but not to those of Notch1, Notch2 or Notch3, which was abrogated by Stat3 deletion (FIG. 1I; […]).

[2] = test system: Notch4 expression on Treg cells; assay: Notch4 expression on peripheral blood Treg cells of a severe asthmatic subject before and after therapy; type: in vivo, human; conditions: post therapy
Text: In contrast, Notch4 expression on circulating CD4^+ Teff cells was low and remained relatively flat as a function of asthma severity (FIG. 6B). Also, expression of Notchl-3 on Treg and Teff cells was not increased in asthmatics as compared to control subjects (FIGS. 17A-17I). Notch4 expression was restricted to the Helios^low iTreg cell subpopulation (FIG. 6C). […] Also, there were increased concentrations of GDF 15 in the sera of moderate and severe asthmatics that positively correlated with circulating Treg cell Notch4 expression (FIG. 6F).

[3] = test system: GDF15; assay: in vitro co-culture of GDF15-expressing Notch4high Treg cells with naive ILC2 cells; type: cell-based, mouse; conditions: Treg cells from lungs of OVA+UFP-treated mice
Experimental: (§2) FIGS. 5A-5L show Notch4 promotes ILC2 activation via a GDF15-dependent mechanism (FIG. 5A) Flow cytometric analysis and frequencies of IL13^+ ILC2 (Lineage^- T1/ST2^+ cells) in mice of respective genotypes treated as indicated. (FIG. 5B and FIG. 5C) In vitro suppression assays of ILC2 cells isolated from OVA+UFP-treated Foxp3^YFPCre mice and incubated with Treg cells of mice of the respective genotypes treated as indicated. Additional treatment of in vitro cultures with isotype control or anti-Notch4 mAb is also indicated. (FIG. 5D) Flow cytometric analysis and frequencies of GDF15^+ lung Treg cells of mice of the respective genotypes treated as indicated. (FIG. 5E) Flow cytometric analysis and frequencies of IL-13 expression in cultures of naive ILC2 stimulated with IL-33, GDF15 or both. (FIG. 5F) IL-13 expression in naive ILC2 incubated with Notch4^high Treg cells from OVA+UFP treated mice without or with blocking GDF15 peptide. (FIG. 5G and FIG. 5H) AHR and IL13^+ ILC2 frequencies in Foxp3^YFPCre mice treated as indicated and challenged in the presence of carrier protein or GDF15 blocking peptide. (FIG. 5I to FIG. 5K) AHR and frequencies of the indicated lung cell types in sham or OVA+UFP sensitized and challenged Foxp3^YFPCre and Foxp3^YFPCreNotch4^Δ/Δ mice treated with recombinant GDF15, as indicated. Each symbol represents an independent sample. […]

[4] = test system: allergic airway inflammation; assay: OVA+UFP allergic airway inflammation in mice, intra-tracheal instillation; type: in vivo, mouse
Experimental: FIGS. 5A-5L show Notch4 promotes ILC2 activation via a GDF15-dependent mechanism (FIG. 5A) Flow cytometric analysis and frequencies of IL13^+ ILC2 (Lineage^- T1/ST2^+ cells) in mice of respective genotypes treated as indicated. (FIG. 5B and FIG. 5C) In vitro suppression assays of ILC2 cells isolated from OVA+UFP-treated Foxp3^YFPCre mice and incubated with Treg cells of mice of the respective genotypes treated as indicated. Additional treatment of in vitro cultures with isotype control or anti-Notch4 mAb is also indicated. (FIG. 5D) Flow cytometric analysis and frequencies of GDF15^+ lung Treg cells of mice of the respective genotypes treated as indicated. (FIG. 5E) Flow cytometric analysis and frequencies of IL-13 expression in cultures of naive ILC2 stimulated with IL-33, GDF15 or both. (FIG. 5F) IL-13 expression in naive ILC2 incubated with Notch4^high Treg cells from OVA+UFP treated mice without or with blocking GDF15 peptide. (FIG. 5G and FIG. 5H) AHR and IL13^+ ILC2 frequencies in Foxp3^YFPCre mice treated as indicated and challenged in the presence of carrier protein or GDF15 blocking peptide. (FIG. 5I to FIG. 5K) AHR and frequencies of the indicated lung cell types in sham or OVA+UFP sensitized and challenged Foxp3^YFPCre and Foxp3^YFPCreNotch4^Δ/Δ mice treated with recombinant GDF15, as indicated. Each symbol represents an independent sample. Numbers in flow plots indicate percentages. Error bars indicate SEM. Statistical tests: two-way ANOVA with Sidak’s post hoc analysis (FIGS. 5A to 5D, 5G and 5I); One-way ANOVA with Dunnett’s post hoc analysis (FIGS. 5E and 5F, 5H and 5J). *P<0.05, ***P<0.001, ****P<0.0001. Data representative of two or three independent experiments. n=5-15 mice per group.
(FIG. 18A) Representative PAS-stained sections of lung tissues isolated from Foxp3^YFPCre and Foxp3^YFPCreNotch4^Δ/Δ with either PBS or OVA+UFP, the latter either alone or supplemented with GDF15, as indicated (200X magnification). (FIG. 18B) Inflammation score for the respective mouse groups. (FIG. 18C) Frequencies of ILC in the lungs of respective mouse groups. (FIG. 18D) IL-4, IL-13, and IL-17 expression in lung Foxp3^-CD4^+ Teff cells in the respective groups. (FIG. 18E) IL-4, IL-13, and IL-17 expression in lung Foxp3^+CD4^+ Treg cells in the respective groups. Error bars indicate SEM. Statistical tests. One-way ANOVA with Dunnett’s post hoc analysis. (FIGS. 18A-18E) **P<0.01, ***P<0.001, ****P<0.0001. Data representative of two or three independent experiments. n=10 mice per group.
(FIG. 19A) Representative PAS-stained sections of lung tissues isolated from Foxp3^YFPCre, treated with GDF15 blocking peptide segregated into PBS, or OVA+UFP-treated groups (200X magnification). (FIG. 19B) Inflammation score for the respective mouse groups. […]

[5] = test system: Notch4 on differentiating Treg cells; assay: antigen presenting cell-free in vitro iTreg cell differentiation (anti-CD3+anti-CD28 mAbs, TGF-β1); type: cell-based, mouse; conditions: naive T cells
Text: as §1, with “Statistical tests for all panels: One-way ANOVA with Dunnett’s post hoc analysis. *P<0.05, **P<0.01, ***P<0.001, ****P<0.0001. Data representative of two or three independent experiments. (FIGS. 1A, 1D to 1F) n=5, (FIGS. 1B and 1C) n=15 and (FIGS. 1G and 1H) n=6 replicates per group.” left out

[6] = test system: IL-13 expression in naive ILC2; assay: in vitro cultures of ILC2 derived from naive mice stimulated with GDF15, IL-33 or both; type: cell-based, mouse
Experimental: as §2

[7] = OVA+UFP treated Foxp3YFPCreNotch4Δ/Δ mice, intra-tracheal instillation

## IL-1β: cytokine added to cell cultures
[1]
  Notch4 expression on differentiating iTreg cells: not

## Tocilizumab: anti-IL-6R mAb (anti-IL-6Ra chain mAb)
[2]
  Notch4 expression on patient Treg cells: decreased Notch4 expression
[2]; listed as tocilizumab
  Notch4 expression on patient Treg cells: substantially attenuated Notch4 expression

## TSLP: cytokine added to cell cultures
[1]
  Notch4 expression on differentiating iTreg cells: not

## GDF15 blocking peptide: GDF15 inhibitory peptide, KTSLHRLKPDTVPAPC (SEQ ID NO: 1; amino acids 258-273 of the full length GDF15 gene product) (listed as Homo sapiens)
[3]
  upregulation of IL13 expression in naive ILC2 by Notch4high Treg cells: reversed
[4]; OVA+UFP treated Foxp3YFPCre mice, instillation
  AHR, tissue inflammation, IL-4 and IL-13 expression in Teff cells (allergic airway inflammation): downregulated the aforementioned changes; also recorded: attenuates allergic airway inflammation

## IL-6: interleukin-6 cytokine added to cell cultures
[1]
  Notch4 expression on differentiating iTreg cells: super-induction of Notch4 expression
[5]
  Notch4 on differentiating Treg cells: induced Notch4 on differentiating Treg cells

## TNFa
[1]
  Notch4 expression on differentiating iTreg cells: not

B1: IL-33: cytokine added to cell cultures (protein, UniProt O95760 1-270, looked up)
Interleukin-33: MKPKMKYSTNKISTAKWKNTASKALCFKLGKSQQKAKEVCPMYFMKLRSGLMIKKEACYFRRETTKRPSLKTGRKHKRHLVLAACQQQSTVECFAFGISGVQKYTRALHDSSITGISPITEYLASLSTYNDQSITFALEDESYEIYVEDLKKDEKKDKVLLSYYESQHPSNESGDGVDGKMLMVTLSPTKDFWLHANNKEHSVELHKCEKPLPDQAFFVLHNMHSNCVSFECKTDPGVFIGVKDNHLALIKVDSSENLCTENILFKLSET
[1]; added together with IL-6
  Notch4 expression induced by IL-6: further upregulated the expression of Notch4
[1]
  Notch4 expression on differentiating iTreg cells: did not induce Notch4 on its own

B2: IL-25: cytokine added to cell cultures (protein, UniProt Q9H293 33-177, looked up)
Interleukin-25: YSHWPSCCPSKGQDTSEELLRWSTVPVPPLEPARPNRHPESCRASEDGPLNSRAISPWRYELDRDLNRLPQDLYHARCLCPHCVSLQTGSHMDPRGNSELLYHNQTVFYRRPCHGEKGTHKGYCLERRLYRVSLACVCVRPRVMG
[1]
  Notch4 expression on differentiating iTreg cells: not

B3: recombinant GDF15: recombinant cytokine growth and differentiation factor 15, secreted ligand of the TGF-beta superfamily (protein, UniProt Q99988 195-308, looked up)
Growth/differentiation factor …: ARARNGDHCPLGPGRCCRLHTVRASLEDLGWADWVLSPREVQVTMCIGACPSQFRAANMHAQIKTSLHRLKPDTVPAPCCVPASYNPMVLIQKTDTGVSLQTYDDLLAKDCHCI
[4]; [7]
  AHR and tissue inflammation: upregulated the AHR and tissue inflammation
  IL-4 and IL-13 expression in Teff cells: increasing IL-4 and IL-13 expression in Teff cells
[4]; OVA+UFP treated Foxp3YFPCreNotch4Δ/Δ mice, intra-tracheal instillation, listed as GDF15
  AHR and tissue inflammation: restores airway inflammation
[6]; alone
  IL-13 expression in ILC2 derived from naive mice: upregulated IL-13 expression alone
[6]; in combination with IL-33
  IL-13 expression in ILC2 derived from naive mice: especially in synergy with IL-33
